Read-outs that look alike come from different tables or passages of the source.
Experiments:
[1] = tested on: Friend leukemia cells; settings: cultured Friend leukemia cells; cited from earlier work
[2] = Total hemoglobin in phlebotomized anemic baboons, continuous versus pulse therapy; format: in vivo, baboon
Experimental: Therapy was administered to anemic baboons who were being phlebotomized 5-10 ml/kg of blood per day on a continuous basis. EPO was administered daily at 300 U/kg/dose. Arginine butyrate was administered daily at 700 mg/kg/day for 5 days and phenoxyacetic acid at 500 mg/kg/day daily over 8 hours and at 1000 mg/kg/day for 24 hours/day daily for five days each. […] With continuous arginine butyrate treatment, hemoglobin remained essentially stable at 6.7 to 6.9 gram/dl. With continuous treatment with phenoxyacetic acid, hemoglobin levels remained stable at 7.0 gram/dl to 6.9 gram/dl during 8 hour therapy and declined from 6.8 to 4.5 when the drug was given for 24 hours per day for 5 days.

[3] = DNA fragmentation assays (cell viability); format: cell-based
Text: Normal cell viability, the viability of an untransformed or uninfected cell, can be determined from analyzing the effects of the composition on one or more biological processes of the cell. Detrimental interference with one or more of these cellular processes becomes significant when the process becomes abnormal. Examples of quantitatable and qualifiable biological processes include the processes of cell division, protein synthesis, nucleic acid (DNA or RNA) synthesis, nucleic acid (principally DNA) fragmentation and apoptosis. Others processes include specific enzyme activities, the activities of the cellular transportation systems such as the transportation of amino acids by system A (neutral), system B (acidic) or system C (basic), and the expression of a cell surface protein. […] Abnormal cell division, for example, can be mitosis which occurs too rapidly, as in a malignancy, or unstably, resulting in programmed cell death or apoptosis, detected by increased DNA degradation. The determination of abnormal cell viability can be made on comparison with untreated control cells. Compositions preferably increase normal cell viability. Increased cell viability can be determined by those of ordinary skill in the art using, for example, DNA fragmentation analysis. […] Determinations of increased or decreased viability can also be concluded from an analysis of the results of multiple different assays. Where multiple tests provide conflicting results, accurate conclusions can still be drawn by those of ordinary skill based upon the cell type, the correctness or correlation of the tests with actual conditions and the type of composition.
Patients with blood disorders are typically quite infirm with, for example, iron damaged organs and systems. Most treatments further tax the patient's already frail health in an effort to combat the disorder.

[4] = tested on: Bfu-e; experiment: Erythroid colony (Bfu-e) proliferation with maximal growth factors, normal subject; format: cell-based, human; settings: 0.2-0.5 mM where given
Text: Erythroid cells were obtained, as described in Example 1, from a normal subject and cultured on semi-solid medium in the presence of a maximal amount of erythroid growth factors including IL-6, GM-CSF, SCF and EPO. Erythroid proliferation in the presence of these factors is expected to be maximal and, therefore, any increases observed would be significant.

[5] = tested on: fetal globin; experiment: Proportion of fetal globin-expressing cells in culture, fluorescent antibodies, sickle cell patient; format: cell-based, human; settings: 14 days, controls 40.7%
Experimental: In a fourth experiment, erythroid cells were obtained from a sickle cell patient. These cells were established in culture both with and without test a variety of test compounds. Cultures were incubated for 14 days in methylcellulose media with maximal concentrations of all hematopoietic growth factors (GM-CSF, SCF, EPO). Colonies were analyzed using fluorescent monoclonal antibodies against fetal globin to determine the proportion of erythroid cells that expressed fetal globin.

[6] = tested on: fetal globin; experiment: Fetal globin production in erythroid progenitor colonies (Bfu-e), sickle cell anemia patient; format: cell-based, human; settings: controls 48% of non-α globin
[7] = tested on: system A transport of amino acids; experiment: Uptake of 3H-methyl-aminoisobutyric acid (MeAIB) into erythroblasts; format: cell-based; settings: for amino acid (MeAIB) uptake / transport: 2.0 mM, relative to untreated fetal liver erythroid cells
Experimental: Erythroblasts were tested for alterations in uptake of radio-labelled amino acid (^3H-methyl-aminoisobutyric acid; MeAIB) in the presence of AB (arginine butyrate), AMHCA (α-methylhydrocinnamic acid), PAA (phenoxyacetic acid), and IBT (isobutyramide), each at 2.0 mM.

[8] = tested on: human fetal liver cells; experiment: Erythroid progenitor colony proliferation, fetal liver cells; format: cell-based; settings: 0.2 mM, maximal growth factors, p<0.025
Experimental: In a third experiment, human fetal liver cells were also tested. As fetal cells are known not to respond to the presence of the growth factors, any increases observed are highly significant. Erythroid progenitor cultures were established from fetal liver and plated with maximal amounts of growth factors. To these plates were added; lane 1, 2-(4′-methoxyphenoxy) propionic acid; lane 2, phenoxyacetic acid; and lane 3, α-methylhydrocinnamic acid; all at a concentration of 0.2 mM.

[9] = tested on: K562 human erythroleukemia cells; settings: cited from earlier work
[10] = Platelet counts in baboon with pulse administration; format: in vivo; settings: increased from 240,000
[11] = tested on: γ globin mRNA; settings: continuous intravenous administration; cited from earlier work
[12] = Apoptosis (fragmented DNA stain) of circulating erythroblasts, Hb-E beta thalassemia patient; format: in vivo, human
Text: Peripheral blood from a patient with Hb-E beta thalassemia has 1200 NRBCs per 100 white blood cells which allows for rapid monitoring for apoptosis. […] A plateau or even a decline in hematologic response has been observed when butyrate therapy is given continuously.

[13] = Weekly then pulse butyrate in a patient with β° thalassemia; format: in vivo, human
Experimental: A plateau or even a decline in hematologic response has been commonly observed when butyrate therapy is given continuously. This is illustrated in a patient with β° thalassemia, who responded to weekly butyrate treatment with an increase in fetal globin synthesis and improved globin chain balance from 0.5 to 0.85 non-α to α-globin chain ratios (FIG. 8). A 3-fold increase in γ globin mRNA was detected 24-36 hours after therapy. A 1-1.5 gram/dl rise in total hemoglobin followed the increase in […] synthesis and mRNA, but total Hgb then plateaued and even declined slightly (solid line). A decline in ferritin is also frequently observed (lower panel), even though the patient received single daily supplements.
When therapy was decreased to shorter pulses for 2-3 days on alternate weeks, total hemoglobin rose another 2 grams/dl. Increased iron supplements were required to support the active erythropoiesis, despite the presence of iron overload.
The therapeutic rise in total hemoglobin plateaued or declined on weekly therapy. With a change to pulse therapy, shown by the curved arrow, there was a further rise in total Hgb to 9.6 gm/dl, a level that no longer requires transfusions.
A three fold increase in γ globin mRNA was detected 24 to 36 hours after therapy.
A 1.0 to 1.5 gram per deciliter rise in total hemoglobin followed the increase in γ globin mRNA synthesis for 30 to 50 days, but total Hgb plateaued and even declined slightly (FIG. 8). A decline in ferritin was also frequently observed (FIG. 10) even though the patient received single daily supplements.
Increased iron supplements were required to support active erythropoiesis, despite the iron overload (FIG. 10).

[14] = Globin chain synthesis at varied butyrate infusion rates in patients; format: in vivo, human; settings: infusion at 150 mg per kg per hour; baseline 0.6
Experimental: Infusion rates were varied between 20 to 150 mg per kg per hour in several patients who have large proportions of circulating nucleated erythroblasts. Globin chain synthesis was assayed at different time points before and following drug infusions.

[15] = Continuous butyrate therapy in a child with beta thalassemia; format: in vivo, human
Text: Treatment period, the ten month duration of butyrate therapy, is shown between the vertical lines.

SMILES: CC(C)C(=O)O [isobutyrate]
- hemoglobin synthesis [1]: induced hemoglobin synthesis

SMILES: O=C(O)COc1ccccc1 [phenoxyacetic acid]
- total hemoglobin after treatment ([2]; continuous, 500 mg/kg/day daily over 8 hours, from 7.0): 6.9 gram/dl
- total hemoglobin after treatment ([2]; continuous, 1000 mg/kg/day, 24 hours per day for 5 days, declined from 6.8): 4.5
- total hemoglobin after treatment ([2]; pulse, 2 oral doses per week, 500 mg/kg on days 1 and 4, in one week, from 6.9): 7.6 gram/dl
- DNA fragmentation in fragmentation assays ([3]; pulsed administration): reduce DNA fragmentation
- Bfu-e growth [4]: further increase Bfu-e growth
- Increase in γ-Globin Expressing Cells ([5]; 0.2 mM): 54.6%
- increase in fetal globin over controls [6]: 34%
- system A transport of amino acids [7]: do not significantly alter system A transport of amino acids
- amino acid (MeAIB) uptake / transport [7]: did not inhibit amino acid transport
- proliferation of colonies [8]: increased proliferation of colonies

SMILES: CC(Cc1ccccc1)C(=O)O (stereo not drawn) [α-methylhydrocinnamic acid]
- Bfu-e growth [4]: further increase Bfu-e growth
- Increase in γ-Globin Expressing Cells ([5]; concentration not given): 64.4%
- increase in fetal globin over controls [6]: 18%
- system A transport of amino acids [7]: do not significantly alter system A transport of amino acids
- amino acid (MeAIB) uptake / transport [7]: did not inhibit amino acid transport
- proliferation of colonies [8]: increased proliferation of colonies

SMILES: CCC(=O)O [propionate]
- ability to increase fetal globin expression [9]: most effective
- hemoglobin synthesis [1]: induced hemoglobin synthesis

SMILES: CCCCCC(=O)[O-].CCCCCC(=O)[O-].[Ca+2] [caproate]
- ability to increase fetal globin expression [9]: much less of an effect

SMILES: CC(Oc1ccc(Cl)cc1)C(=O)O (stereo not drawn) [4-chlorophenoxy-2-propionic acid]
- Bfu-e growth [4]: further increase Bfu-e growth
- Increase in γ-Globin Expressing Cells ([5]; 0.5 mM): 59.7%

SMILES: CCCCCCCCCC(=O)O [caprate]
- ability to increase fetal globin expression [9]: much less of an effect

SMILES: COc1ccc(OC(C)C(=O)O)cc1 (stereo not drawn) [2-(4′-methoxyphenoxy) propionic acid]
- Bfu-e growth [4]: further increase Bfu-e growth
- amino acid (MeAIB) uptake / transport [7]: moderate inhibition of transport
- inhibition of MeAIB uptake ([7]; after 60 and 120 minutes): somewhat less so
- proliferation of colonies [8]: increased proliferation of colonies

SMILES: CCCCCCCC(=O)O [caprylate]
- ability to increase fetal globin expression [9]: much less of an effect

SMILES: CCCC(=O)OCC [butyric acid ethyl ester]
- DNA fragmentation in fragmentation assays [3]: reduce DNA fragmentation

SMILES: CC(=O)O [acetate]
- hemoglobin synthesis [1]: induced hemoglobin synthesis

SMILES: CC(C)C(N)=O [isobutyramide]
- cell viability in DNA fragmentation assays [3]: decrease cell viability

SMILES: O=C(O)CCc1ccccc1 [dihydrocinnamic acid]
- platelet counts after treatment [10]: 767,000

SMILES: Nc1ncn([C@@H]2O[C@H](CO)[C@@H](O)[C@H]2O)c(=O)n1 [AZA, 5-azacytidine]
- increase in γ globin mRNA of bone marrow cells [11]: five- to seven-fold

SMILES: CCCC(=O)O [butyrate]
- apoptosis, red stain of fragmented DNA ([12]; after high-dose): red staining of most cells
- apoptosis, red stain of fragmented DNA ([12]; after low-dose pulse therapy): no red-staining erythroblasts are observed
- total Hgb reached ([13]; after change to pulse therapy): 9.6 gm/dl
- non-α to α-globin chain ratios ([13]; weekly butyrate, improved from 0.5): 0.85
- rise in total hemoglobin ([13]; weekly butyrate, then plateaued): 1-1.5 gram/dl
- non-α globin to α globin ratio [14]: 0.77
- total hemoglobin ([15]; after 4 months of continuous weekly treatment): 7.5-8.4 gm/dl
- total hemoglobin, peak ([15]; continuous therapy, baseline 5.6 grams/dl): 9.9 gm/dl
- total hemoglobin, plateau ([15]; continuous therapy, for 2 months after peak): 8.0-8.8 gm/dl

Source: patent publication US6403647B1, “Pulsed administration of compositions for the treatment of blood disorders” (priority 1996, dated 2002)
